Test results published in patent publication US7064120B2, “Tricyclic pyridyl carboxamides and derivatives thereof tocolytic oxytocin receptor antagonists” (Wyeth, priority 2001, dated 2006).

Target: T1, human vasopressin V2 receptor subtype (Homo sapiens, UniProt P30518)
T1 construct: host or cells: CHO cells, stably transfected (pZeoSV vector)
Experiment: Vasopressin binding in CHO cell membranes expressing human vasopressin V2 subtype receptors ([3H]arginine vasopressin radioligand binding)
Details: for IC50: value in parentheses
Procedure, shortened: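 Values are IC50 in nM or percent inhibition at a stated concentration, from scintillation counts after filtration. Binding ran 60 min at room temperature: [3H]arginine vasopressin, human V2-transfected CHO membranes (25 to 50 μg protein/well), pH 7.4 Tris-HCl buffer containing MgCl2, BSA, protease inhibitors.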

T1 sequence (P30518 whole entry): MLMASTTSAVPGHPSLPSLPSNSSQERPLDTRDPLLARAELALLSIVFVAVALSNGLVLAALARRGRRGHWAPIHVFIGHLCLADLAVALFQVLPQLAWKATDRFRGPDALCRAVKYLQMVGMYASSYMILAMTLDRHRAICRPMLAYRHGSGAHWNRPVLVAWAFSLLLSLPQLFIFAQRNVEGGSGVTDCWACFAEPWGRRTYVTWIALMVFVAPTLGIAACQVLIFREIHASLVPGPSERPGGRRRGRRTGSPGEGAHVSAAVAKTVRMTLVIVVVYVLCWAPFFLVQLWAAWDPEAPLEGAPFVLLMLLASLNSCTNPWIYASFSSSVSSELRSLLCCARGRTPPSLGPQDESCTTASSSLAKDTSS

| inhibition at 0.1 µM (100 nM) [%] | SMILES | other results |
| --- | --- | --- |
| 13 | Cc1ccccc1-c1ccc(C(=O)N2Cc3ccc(C(=O)N(C)CCc4ccccn4)n3Cc3ccccc32)cc1 [Example 68, N-Methyl-10-[(2′-methyl-[1,1′-biphenyl]-4-yl)carbonyl]-N-[2-(2-pyridinyl)ethyl]-10,11-dihydro-5H-pyrrolo[2,1-c][1,4]benzodiazepine-3-carboxamide] | – |
| 10 | COc1cccc(-c2cc(OC)c(C(=O)N3Cc4ccc(C(=O)N(C)CCc5ccccn5)n4Cc4ccccc43)cc2Cl)c1 [Example 70, 10-[(6-Chloro-3,3′-dimethoxy-[1,1′-biphenyl]-4-yl)carbonyl]-N-methyl-N-[2-(2-pyridinyl)ethyl]-10,11-dihydro-5H-pyrrolo[2,1-c][1,4]benzodiazepine-3-carboxamide] | – |
| 23 | COc1ccccc1-c1ccc(C(=O)N2Cc3ccc(C(=O)N(C)Cc4cccnc4)n3Cc3ccccc32)cc1 [Example 104, 10-[(2′-Methoxy-[1,1′-biphenyl]-4-yl)carbonyl]-N-methyl-N-(3-pyridinylmethyl)-10,11-dihydro-5H-pyrrolo[2,1-c][1,4]benzodiazepine-3-carboxamide] | – |
| 24 | Cc1ccccc1-c1ccc(C(=O)N2Cc3ccc(C(=O)N(C)CCc4ccccn4)n3Cc3ccccc32)cc1C [Example 66, 10-[(2,2′-Dimethyl-[1,1′-biphenyl]-4-yl)carbonyl]-N-methyl-N-[2-(2-pyridinyl)ethyl]-10,11-dihydro-5H-pyrrolo[2,1-c][1,4]benzodiazepine-3-carboxamide] | – |
| 13 | COc1ccccc1-c1ccc(C(=O)N2Cc3ccc(C(=O)NCc4ccncc4)n3Cc3ccccc32)cc1C [Example 88, 10-[(2′-Methoxy-2-methyl-[1,1′-biphenyl]-4-yl)carbonyl]-N-(4-pyridinylmethyl)-10,11-dihydro-5H-pyrrolo[2,1-c][1,4]benzodiazepine-3-carboxamide] | – |
| 5 | COc1cc(-c2ccccc2C)c(Cl)cc1C(=O)N1Cc2ccc(C(=O)N3CCN(c4ccccn4)CC3)n2Cc2ccccc21 [Example 81, {10-[(6-Chloro-3-methoxy-2′-methyl-[1,1′-biphenyl]-4-yl)carbonyl]-10,11-dihydro-5H-pyrrolo[2,1-c][1,4]benzodiazepin-3-yl}[4-(2-pyridinyl)-1-piperazinyl]methanone] | – |
| – | COc1ccccc1-c1ccc(C(=O)N2Cc3ccc(C(=O)N(C)Cc4cccnc4)n3Cc3ccccc32)cc1OC [Example 103, 10-[(2,2′-Dimethoxy-[1,1′-biphenyl]-4-yl)carbonyl]-N-methyl-N-(3-pyridinylmethyl)-10,11-dihydro-5H-pyrrolo[2,1-c][1,4]benzodiazepine-3-carboxamide] | IC50: 318 nM |
| – | Cc1cc(C(=O)N2Cc3ccc(C(=O)N4CCN(c5ccncc5)CC4)n3Cc3ccccc32)ccc1-c1ccccc1C(F)(F)F [Example 1] | V2 % inhibition @ 100 nM (100 nM): 18% |
| 16 | CN(CCc1ccccn1)C(=O)c1ccc2n1Cc1ccccc1N(C(=O)c1ccc(-c3cccc4ccccc34)cc1Cl)C2 [Example 73, 10-[2-Chloro-4-(naphthalen-1-yl)benzoyl]-N-methyl-N-[2-(2-pyridinyl)ethyl]-10,11-dihydro-5H-pyrrolo[2,1-c][1,4]benzodiazepine-3-carboxamide] | – |
| – | COc1cccc(-c2ccc(C(=O)N3Cc4ccc(C(=O)N(C)CCc5ccccn5)n4Cc4ccccc43)cc2C)c1 [Example 62, 10-[(3′-Methoxy-2-methyl-[1,1′-biphenyl]-4-yl)carbonyl]-N-methyl-N-[2-(2-pyridinyl)ethyl]-10,11-dihydro-5H-pyrrolo[2,1-c][1,4]benzodiazepine-3-carboxamide] | IC50: 1490 nM |
| – | COc1cc(C(=O)N2Cc3ccc(C(=O)N(C)Cc4cccnc4)n3Cc3ccccc32)ccc1-c1ccccc1C(F)(F)F [Example 7, 10-{[2-Methoxy-2′-trifluoromethyl-[1,1′-biphenyl]-4-yl]carbonyl}-N-methyl-N-(pyridin-3-ylmethyl)-10,11-dihydro-5H-pyrrolo[2,1-c][1,4]benzodiazepine-3-carboxamide] | IC50: 407 nM |
| 10 | Cc1ccccc1-c1ccc(C(=O)N2Cc3ccc(C(=O)N4CCN(c5ccccn5)CC4)n3Cc3ccccc32)cc1 [Example 79, {10-[(2′-Methyl-[1,1′-biphenyl]-4-yl)carbonyl]-10,11-dihydro-5H-pyrrolo[2,1-c][1,4]benzodiazepin-3-yl}[4-(2-pyridinyl)-1-piperazinyl]methanone] | – |
| 5 | COc1cc(-c2ccccc2C)c(Cl)cc1C(=O)N1Cc2ccc(C(=O)NCc3ccncc3)n2Cc2ccccc21 [Example 94, 10-[(6-Chloro-3-methoxy-2′-methyl-[1,1′-biphenyl]-4-yl)carbonyl]-N-(4-pyridinylmethyl)-10,11-dihydro-5H-pyrrolo[2,1-c][1,4]benzodiazepine-3-carboxamide] | – |
| 8 | COc1ccccc1-c1ccc(C(=O)N2Cc3ccc(C(=O)N4CCN(c5ccccn5)CC4)n3Cc3ccccc32)cc1 [Example 78, {10-[(2′-Methoxy-[1,1′-biphenyl]-4-yl)carbonyl]-10,11-dihydro-5H-pyrrolo[2,1-c][1,4]benzodiazepin-3-yl}[4-(2-pyridinyl)-1-piperazinyl]methanone] | – |
| 6 | Cc1ccccc1-c1ccc(C(=O)N2Cc3ccc(C(=O)N(C)Cc4cccnc4)n3Cc3ccccc32)cc1 [Example 105, N-Methyl-10-[(2′-methyl-[1,1′-biphenyl]-4-yl)carbonyl]-N-(3-pyridinylmethyl)-10,11-dihydro-5H-pyrrolo[2,1-c][1,4]benzodiazepine-3-carboxamide] | – |
| 15 | COc1cc(C(=O)N2Cc3ccc(C(=O)N(C)CCc4ccccn4)n3Cc3ccccc32)ccc1-c1ccccc1C [Example 69, 10-[(2-Methoxy-2′-methyl-[1,1′-biphenyl]-4-yl)carbonyl]-N-methyl-N-[2-(2-pyridinyl)ethyl]-10,11-dihydro-5H-pyrrolo[2,1-c][1,4]benzodiazepine-3-carboxamide] | – |
| – | Cc1cc(C(=O)N2Cc3ccc(C(=O)N(C)Cc4cccnc4)n3Cc3ccccc32)ccc1-c1ccccc1C(F)(F)F [Example 112, N-Methyl-10-{[2-methyl-2′-trifluoromethyl-[1,1′-biphenyl]-4-yl]carbonyl}-N-(3-pyridinylmethyl)-10,11-dihydro-5H-pyrrolo[2,1-c][1,4]benzodiazepine-3-carboxamide] | IC50: 1130 nM |
| – | COc1ccccc1-c1ccc(C(=O)N2Cc3ccc(C(=O)N(C)Cc4cccnc4)n3Cc3ccccc32)cc1C [Example 101, 10-[(2′-Methoxy-2-methyl-[1,1′-biphenyl]-4-yl)carbonyl]-N-methyl-N-(3-pyridinylmethyl)-10,11-dihydro-5H-pyrrolo[2,1-c][1,4]benzodiazepine-3-carboxamide] | IC50: 270 nM |
| 21 | Cc1ccccc1-c1ccc(C(=O)N2Cc3ccc(C(=O)N4CCN(c5ccccn5)CC4)n3Cc3ccccc32)cc1C [Example 76, {10-[(2,2′-Dimethyl-[1,1′-biphenyl]-4-yl)carbonyl]-10,11-dihydro-5H-pyrrolo[2,1-c][1,4]benzodiazepin-3-yl}[4-(2-pyridinyl)-1-piperazinyl]methanone] | – |
| 22 | COc1cc(C(=O)N2Cc3ccc(C(=O)NCc4ccncc4)n3Cc3ccccc32)ccc1-c1cccc2ccccc12 [Example 96, 10-[3-Methoxy-4-(naphthalen-1-yl)benzoyl]-N-(4-pyridinylmethyl)-10,11-dihydro-5H-pyrrolo[2,1-c][1,4]benzodiazepine-3-carboxamide] | – |
| 0 | Cc1cc(C(=O)N2Cc3ccc(C(=O)NCc4ccncc4)n3Cc3ccccc32)ccc1-c1ccccc1C(F)(F)F [Example 100, 10-{[2-Methyl-2′-trifluoromethyl-[1,1′-biphenyl]-4-yl]carbonyl}-N-(4-pyridinylmethyl)-10,11-dihydro-5H-pyrrolo[2,1-c][1,4]benzodiazepine-3-carboxamide] | – |
| – | Cc1cc(C(=O)N2Cc3ccc(C(=O)N4CCN(Cc5ccc[n+]([O-])c5C)CC4)n3Cc3ccccc32)ccc1-c1ccccc1C(F)(F)F [Example 3, 3-({4-[(2-Methyl-1-oxidopyridin-3-yl)methyl]piperazin-1-yl}carbonyl)-10-{[2-methyl-2′-trifluoromethyl-[1,1′-biphenyl]-4-yl]carbonyl}-10,11-dihydro-5H-pyrrolo[2,1-c][1,4]benzodiazepine] | IC50: > 3000 nM |
| 24 | COc1cc(C(=O)N2Cc3ccc(C(=O)N(C)CCc4ccccn4)n3Cc3ccccc32)ccc1-c1cccc2ccccc12 [Example 71, 10-[3-Methoxy-4-(naphthalen-1-yl)benzoyl]-N-methyl-N-[2-(2-pyridinyl)ethyl]-10,11-dihydro-5H-pyrrolo[2,1-c][1,4]benzodiazepine-3-carboxamide] | – |
| 8 | COc1cc(C(=O)N2Cc3ccc(C(=O)N4CCN(c5ccccn5)CC4)n3Cc3ccccc32)ccc1-c1ccccc1C [Example 80, {10-[(2-Methoxy-2′-methyl-[1,1′-biphenyl]-4-yl)carbonyl]-10,11-dihydro-5H-pyrrolo[2,1-c][1,4]benzodiazepin-3-yl}[4-(2-pyridinyl)-1-piperazinyl]methanone] | – |
| 9 | COc1ccccc1-c1ccc(C(=O)N2Cc3ccc(C(=O)N4CCN(c5ccccn5)CC4)n3Cc3ccccc32)cc1C [Example 75, {10-[(2′-Methoxy-2-methyl-[1,1′-biphenyl]-4-yl)carbonyl]-10,11-dihydro-5H-pyrrolo[2,1-c][1,4]benzodiazepin-3-yl}[4-(2-pyridinyl)-1-piperazinyl]methanone] | – |
| 10 | COc1cccc(-c2ccc(C(=O)N3Cc4ccc(C(=O)N5CCN(c6ccccn6)CC5)n4Cc4ccccc43)cc2C)c1 [Example 77, {10-[(3′-Methoxy-2-methyl-[1,1′-biphenyl]-4-yl)carbonyl]-10,11-dihydro-5H-pyrrolo[2,1-c][1,4]benzodiazepin-3-yl}[4-(2-pyridinyl)-1-piperazinyl]methanone] | – |
